Measured values from patent publication EP4678629A1, “IONIZABLE LIPID MOLECULE, PREPARATION METHOD THEREFOR AND USE THEREOF” (Maxirna (Shanghai) Pharmaceutical Co., Ltd., priority 2023, dated 2024).

What was measured:
[1] = Size and polydispersity index (PDI) of the lipid nanoparticle by dynamic light scattering; assay type: physicochemical; conditions: LNP encapsulating eGFP mRNA, ionizable lipid/DOPE/cholesterol/DMG-PEG2000 50/10/48.25/1.25 mol%, N/P 12; for Particle size: in nm (unit assumed)
Method in brief: (§1)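 LNPs were made by microfluidic mixing of ionizable lipid/DOPE/cholesterol/DMG-PEG2000 (50/10/48.25/1.25 mol%) in ethanol with eGFP mRNA in 20 mM citrate pH 6.1, N/P 12, then ultrafiltered into DPBS and 0.2 µm filtered. Size and PDI by DLS at 173° backscatter; encapsulation by Ribogreen.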

[2] = Encapsulation efficiency of the lipid nanoparticle (eGFP mRNA) by Ribogreen method; assay type: physicochemical; conditions: LNP encapsulating eGFP mRNA, ionizable lipid/DOPE/cholesterol/DMG-PEG2000 50/10/48.25/1.25 mol%, N/P 12
Method in brief: as §1

[3] = In vitro transfection of cells with eGFP-mRNA lipid nanoparticle (LNP preparation), fluorescence imaging and flow cytometry; assay type: cell-based, mouse; conditions: mouse, dc2.4 cells, 200 ng of mRNA per well, after 24 hours; read-out: Cell viability, %
Method in brief: (§2)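 Mouse bone marrow-derived DC2.4 dendritic cells seeded at 2 × 10^5 cells/well in DMEM with 10% FBS, transfected with eGFP-mRNA LNPs the next day at 37 °C, 5% CO2. After 24 hours, viability, eGFP-positive rate and mean fluorescence intensity read by fluorescence imaging and flow cytometry.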

DC2.4 cells = test: as above; assay type: cell-based, mouse; conditions: eGFP positivity rate, DC2.4 cells, 200 ng of mRNA per well, after 24 hours
Method in brief: as §2

Compound | Particle size [1] | Encapsulation rate, % [2] | viability at 24 h [3] | Positive rate, % (DC2.4 cells) | PDI [1]
CCCCC/C=C\C/C=C\CCCCCCCCOC(=O)CCCN(CCO)CCCN(CCCC(=O)OCCCCCCCC/C=C\C/C=C\CCCCC)CCCC(=O)OCCCCCCCC/C=C\C/C=C\CCCCC [Example 80, Di((9Z,12Z)-octadeca-9,12-dien-1-yl)4,4'-((3-((2-hydroxyethyl)(4-(((9Z,12Z)-octadeca-9,12-dien-1-yl)oxo)-4-oxobutyl)amino)propyl)azanediyl)dibutanoate] | 99.14 | 99.14% | 87.3% | 94.60% | –
CCCCCCCCCCCOC(=O)CCCN(CCCO)CCCCN(CCCC(=O)OCCCCCCCCCCC)CCCC(=O)OCCCCCCCCCCC [Example 82, Diundecyl 4,4'-((4-((3-hydroxypropyl)(4-oxo-4-(undecyloxy)butyl)amino)butyl)azanediyl)dibutanoate] | 99.74 | 99.74% | 76% | 96.72% | 92.91
CCCCCCCCCCCOC(=O)CCCN(CCCO)CCCCCN(CCCC(=O)OCCCCCCCCCCC)CCCC(=O)OCCCCCCCCCCC [Example 83] | 99.79 | 99.79% | 84.2% | 97.05% | 73.54
CCCCCCCCCCOC(=O)CCCN(CCCO)CCCCN(CCCC(=O)OCCCCCCCCCC)CCCC(=O)OCCCCCCCCCC [Example 86] | 88.62 | 94.50% | 93% | 94.18% | 0.13
CCCCCCCCCCCOC(=O)CCCN(CCO)CCCCN(CCCC(=O)OCCCCCCCCCCC)CCCC(=O)OCCCCCCCCCCC [Example 87] | 72.55 | 92.26% | 97.5% | 96.15% | 0.12
CCCCCCCCCCOC(=O)CCCN(CCO)CCCN(CCCC(=O)OCCCCCCCCCC)CCCC(=O)OCCCCCCCCCC [Example 93, Decyl 4-(20-(2-hydroxyethyl)-12,24-dioxo-16,20-diaza-11,25-dioxapentatriacontane-16-yl)butanoate] | 98.21 | 93.28% | 82.6% | 85.37% | 0.17
CCCCCCCCCCCCOC(=O)CCCN(CCO)CCCN(CCCC(=O)OCCCCCCCCCCCC)CCCC(=O)OCCCCCCCCCCCC [Example 94, Dodecyl 4-(22-(2-hydroxyethyl)-14,26-dioxo-18,22-diaza-13,27-dioxanonatriacontane-18-yl)butanoate] | – | 96.63% | 98.6% | 88.07% | 0.19
CCCCC/C=C\C/C=C\CCCCCCCCOC(=O)CCCCCCCN(CCCO)CCCN(CCCCCCCC(=O)OCCCCCCCC/C=C\C/C=C\CCCCC)CCCCCCCC(=O)OCCCCCCCC/C=C\C/C=C\CCCCC [Example 95] | – | 92.93% | 95.9% | 93.13% | 0.11
CCCCCCCCCCCOC(=O)CCCCCCCN(CCCCCCCC(=O)OCCCCCCCCCCC)CCCN(CCCO)CCCN(CCCCCCCC(=O)OCCCCCCCCCCC)CCCCCCCC(=O)OCCCCCCCCCCC [Example 98, Tetraundecyl 8,8',8",8"-(((3-hydroxypropyl)azanediyl)di(propane-3,1-diyl))di(azanetriyl)tetraoctanoate] | 89.51 | 91.32% | 96.9% | 92.36% | 0.14
CCCCCCCCCCCCCOC(=O)CCCN(CCCO)CCCCCN(CCCC(=O)OCCCCCCCCCCCCC)CCCC(=O)OCCCCCCCCCCCCC [Example 100, 4,4'-ditridecyl((5-((3-hydroxypropyl)(4-oxo-4-(tridecyloxy)butyl)amino)pentyl)azetidinyl)dibutanoate] | – | 92.32% | 99% | 93.24% | 0.16
CCCCCCCCCCCCCOC(=O)CCCN(CCCO)CCCCN(CCCC(=O)OCCCCCCCCCCCCC)CCCC(=O)OCCCCCCCCCCCCC [Example 101, 4,4'-ditridecyl((4-((3-hydroxypropyl)(4-oxo-4-(tridecyloxy)butyl)amino)butyl)azetidinyl)dibutanoate] | – | 92.68% | 93.4% | 94.85% | 0.14
CCCCCCCCCCCCOC(=O)CCCN(CCCO)CCCCN(CCCC(=O)OCCCCCCCCCCCC)CCCC(=O)OCCCCCCCCCCCC [Example 103] | 94.10 | 94.31% | 95.3% | 93.80% | 0.14
CCCCC/C=C\C/C=C\CCCCCCCCOC(=O)CCCN(CCCO)CCCCN(CCCC(=O)OCCCCCCCC/C=C\C/C=C\CCCCC)CCCC(=O)OCCCCCCCC/C=C\C/C=C\CCCCC [Example 104] | – | 95.12% | 96.7% | 92.63% | 0.16
CCCCCCCCCCCOC(=O)/C=C/CN(C/C=C/C(=O)OCCCCCCCCCCC)CCCN(C/C=C/C(=O)OCCCCCCCCCCC)CCCO [Example 106] | – | 65.99% | 93.9% | 78.77% | 0.28
CCCCCCCCCCCOC(=O)CCCCN(CCO)CCCN(CCCCC(=O)OCCCCCCCCCCC)CCCCC(=O)OCCCCCCCCCCC [Example 107] | – | 95.47% | 92.9% | 92.10% | 0.13
CCCCC/C=C\C/C=C\CCCCCCCCOC(=O)CCCN(CCCO)CCCN(CCCC(=O)OCCCCCCCC/C=C\C/C=C\CCCCC)CCCC(=O)OCCCCCCCC/C=C\C/C=C\CCCCC [Example 108] | 95.34 | 92.30% | 92.3% | 93.99% | 0.13
CCCCCCCCCCCOC(=O)CCCN(CCO)CCCN(CCCC(=O)OCCCCCCCCCCC)C(=O)CCC(=O)OCCCCCCCCCCC [Example 109] | – | 79.70% | 89% | 71.17% | 0.33
CCCCC/C=C\C/C=C\CCCCCCCCOC(=O)CCCCN(CCCO)CCCN(CCCCC(=O)OCCCCCCCC/C=C\C/C=C\CCCCC)CCCCC(=O)OCCCCCCCC/C=C\C/C=C\CCCCC [Example 111] | 96.92 | 92.91% | 91% | 95.82% | 0.12
CCCCCCCCCCCCOC(=O)CCCN(CCCO)CCCN(CCCC(=O)OCCCCCCCCCCCC)CCCC(=O)OCCCCCCCCCCCC [Example 112, 4,4'-didodecyl((3-((4-(dodecoxy)-4-oxobutyl)(3-hydroxypropyl)amino)propyl)azetidinyl)dibutanoate] | 89.42 | 91.22% | 92.3% | 95.39% | 0.11
CCCCCCCCCCOC(=O)CCCN(CCCO)CCCN(CCCC(=O)OCCCCCCCCCC)CCCC(=O)OCCCCCCCCCC [Example 113, Didecyl 4,4'-((3-((4-(decyloxy)-4-oxobutyl)(3-hydroxypropyl)amino)propyl)azetidinyl)dibutanoate] | 88.62 | 91.23% | 93.2% | 92.51% | 0.14
